Measurements published in patent US20080280952A1 (priority 2004, published 2008).
pEC50: −log10 of the molar value.

Target: T1, human cannabinoid CB2 receptor (Homo sapiens, UniProt P34972)
T1 construct: expressed in transfected cells; host or cells: Saccharomyces cerevisiae strain MMY23 (cassette integrated at the ura3 locus, GPD promoter)
Test: Cannabinoid CB2 receptor agonist activity, yeast reporter assay
Assay type: cell-based
Details: for Emax: read-out: efficacy (Emax) at the cloned human cannabinoid CB2 receptor
Method: The cannabinoid CB2 receptor agonist activity of the compounds of formula (I) was determined in accordance with the following experimental method.
Yeast (Saccharomyces cerevisiae) cells expressing the human cannabinoid CB2 receptor were generated by integration of an expression cassette into the ura3 chromosomal locus of yeast strain MMY23. This cassette consisted of DNA sequence encoding the human CB2 receptor flanked by the yeast GPD promoter to the 5′ end of CB2 and a yeast transcriptional terminator sequence to the 3′ end of CB2. MMY23 expresses a yeast/mammalian chimeric G-protein alpha subunit in which the C-terminal 5 amino acids of Gpa1 are replaced with the C-terminal 5 amino acids of human Gαi3 (as described in Brown et al. (2000), Yeast 16:11-22).
Agonists were prepared as 10 mM stocks in DMSO. […] Agonist solutions in DMSO (1% final assay volume) were transferred into black, clear bottom, microtitre plates from NUNC (96- or 384-well). Cells were suspended at a density of 0.2 OD600/ml in SC media lacking histidine, uracil, tryptophan, adenine and leucine and supplemented with 10 mM 3-aminotriazole, 0.1M sodium phosphate pH 7.0, and […] fluorescein di-β-D-glucopyranoside (FDGlu). […] Fluorescence was plotted against compound concentration and iteratively curve fitted using a four parameter fit to generate a concentration effect value. Efficacy (Emax) was calculated from the equation
Equieffective molar ratio (EMR) values were calculated from the equation

T1 sequence (P34972 whole entry): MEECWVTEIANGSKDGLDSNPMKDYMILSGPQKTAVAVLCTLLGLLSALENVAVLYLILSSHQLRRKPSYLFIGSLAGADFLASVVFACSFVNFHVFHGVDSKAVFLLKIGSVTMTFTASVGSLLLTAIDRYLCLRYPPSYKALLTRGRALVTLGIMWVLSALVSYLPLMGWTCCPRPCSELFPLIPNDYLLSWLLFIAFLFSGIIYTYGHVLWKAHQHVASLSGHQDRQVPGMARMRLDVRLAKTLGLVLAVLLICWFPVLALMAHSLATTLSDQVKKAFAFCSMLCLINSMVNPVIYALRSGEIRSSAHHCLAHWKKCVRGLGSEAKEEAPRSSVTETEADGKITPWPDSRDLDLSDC

SMILES | pEC50 | Emax
O=C(NCC1CCOCC1)c1cnc(Nc2cccc(F)c2)cc1C1CCCC1 [Example 15, 4-Cyclopentyl-6-(3-fluoro-phenylamino)-N-(tetrahydro-pyran-4-ylmethyl)-nicotinamide] | 6.00 to 6.52 | > 50%
N#Cc1cccc(Nc2cc(C3CCCC3)c(C(=O)NCC3CCOCC3)cn2)c1 [Example 16, 6-(3-Cyano-phenylamino)-4-cyclopentyl-N-(tetrahydro-pyran-4-ylmethyl)-nicotinamide] | 6.00 to 6.52 | > 50%
Cc1cccc(Nc2cc(C3CCCC3)c(C(=O)NCC3CCOCC3)cn2)c1 [Example 17, Methanesulphonic acid,compound with 4-cyclopentyl-N-(tetrahydro-pyran-4-ylmethyl)-6-m-tolylamino-nicotinamide] | 6.00 to 6.52 | > 50%
O=C(NCC1CCOCC1)c1cnc(Nc2cccc(C(F)(F)F)c2F)cc1C1CC1 [Example 20, 4-Cyclopropyl-6-(2-fluoro-3-trifluoromethyl-phenylamino)-N-(tetrahydro-pyran-4-ylmethyl)-nicotinamide] | 6.00 to 6.52 | > 50%
O=C(NCC1CCOCC1)c1cnc(Nc2ccc(F)c(Cl)c2)cc1C1CC1 [Example 21, 6-(3-Chloro-4-fluoro-phenylamino)-4-cyclopropyl-N-(tetrahydro-pyran-4-ylmethyl)-nicotinamide] | 6.00 to 6.52 | > 50%
O=C(NCC1CCOCC1)c1cnc(Nc2ccc(F)cc2Cl)cc1C1CCCC1 [Example 22, 6-(2-Chloro-4-fluoro-phenylamino)-4-cyclopentyl-N-(tetrahydro-pyran-4-ylmethyl)-nicotinamide] | 6.00 to 6.52 | > 50%
Cc1cc(Cl)ccc1Nc1cc(C2CCCC2)c(C(=O)NCC2CCOCC2)cn1 [Example 23, 6-(4-Chloro-2-methyl-phenylamino)-4-cyclopentyl-N-(tetrahydro-pyran-4-ylmethyl)-nicotinamide] | 6.00 to 6.52 | > 50%
O=C(NCC1CCOCC1)c1cnc(Nc2ccc(Cl)cc2F)cc1C1CCCC1 [Example 24, 6-(4-Chloro-2-fluoro-phenylamino)-4-cyclopentyl-N-(tetrahydro-pyran-4-ylmethyl)-nicotinamide] | 6.00 to 6.52 | > 50%
O=C(NCC1CCOCC1)c1cnc(Nc2cccc(Cl)c2Cl)cc1C1CCCC1 [Example 25, 4-Cyclopentyl-6-(2,3-dichloro-phenylamino)-N-(tetrahydro-pyran-4-ylmethyl)-nicotinamide] | 6.00 to 6.52 | > 50%
COc1cccc(Nc2cc(C3CCCC3)c(C(=O)NCC3CCOCC3)cn2)c1 [Example 26, 4-Cyclopentyl-6-(3-methoxy-phenylamino)-N-(tetrahydro-pyran-4-ylmethyl)-nicotinamide] | 6.00 to 6.52 | > 50%
N#Cc1ccc(Nc2cc(C3CCCC3)c(C(=O)NCC3CCOCC3)cn2)cc1 [Example 27, 6-(4-Cyano-phenylamino)-4-cyclopentyl-N-(tetrahydro-pyran-4-ylmethyl)-nicotinamide] | 6.00 to 6.52 | > 50%
O=C(NCC1CCOCC1)c1cnc(Nc2ccc(Br)c(Cl)c2)cc1C1CC1 [Example 91, 6-(4-Bromo-3-chloro-phenylamino)-4-cyclopropyl-N-(tetrahydro-pyran-4-ylmethyl)-nicotinamide] | 6.00 to 6.52 | > 50%
O=C(NCC1CCOCC1)c1cnc(Nc2ccc(C(F)(F)F)c(F)c2)cc1C1CC1 [Example 92, 4-Cyclopropyl-6-(3-fluoro-4-trifluoromethyl-phenylamino)-N-(tetrahydro-pyran-4-ylmethyl)-nicotinamide] | 6.00 to 6.52 | > 50%
O=C(NCC1CCOCC1)c1cnc(Nc2ccc(F)c(C(F)(F)F)c2)cc1C1CC1 [Example 93, 4-Cyclopropyl-6-(4-fluoro-3-trifluoromethyl-phenylamino)-N-(tetrahydro-pyran-4-ylmethyl)-nicotinamide] | 6.00 to 6.52 | > 50%
O=C(NCC1CCOCC1)c1cnc(Nc2ccc(Br)cc2F)cc1C1CC1 [Example 94, 6-(4-Bromo-2-fluoro-phenylamino)-4-cyclopropyl-N-(tetrahydro-pyran-4-ylmethyl)-nicotinamide] | 6.00 to 6.52 | > 50%
Cc1cc(Cl)ccc1Nc1cc(C2CC2)c(C(=O)NCC2CCOCC2)cn1 [Example 95, 6-(4-Chloro-2-methyl-phenylamino)-4-cyclopropyl-N-(tetrahydro-pyran-4-ylmethyl)-nicotinamide] | 6.00 to 6.52 | > 50%
O=C(NCC1CCOCC1)c1cnc(Nc2ccc(OC(F)(F)F)cc2Br)cc1C1CC1 [Example 96, 6-(2-Bromo-4-trifluoromethoxy-phenylamino)-4-cyclopropyl-N-(tetrahydro-pyran-4-ylmethyl)-nicotinamide] | 6.00 to 6.52 | > 50%
O=C(NCC1CCOCC1)c1cnc(Nc2ccc(Br)c(F)c2)cc1C1CC1 [Example 97, 6-(4-Bromo-3-fluoro-phenylamino)-4-cyclopropyl-N-(tetrahydro-pyran-4-ylmethyl)-nicotinamide] | 6.00 to 6.52 | > 50%
O=C(NCC1CCOCC1)c1cnc(Nc2ccc(Cl)cc2F)cc1C1CC1 [Example 98, 6-(4-Chloro-2-fluoro-phenylamino)-4-cyclopropyl-N-(tetrahydro-pyran-4-ylmethyl)-nicotinamide] | 6.00 to 6.52 | > 50%
O=C(NCC1CCCC1)c1cnc(Nc2ccc(F)cc2F)cc1C1CC1 [Example 99, N-Cyclopentylmethyl-4-cyclopropyl-6-(2,4-difluoro-phenylamino)-nicotinamide] | 6.00 to 6.52 | > 50%
O=C(NCC1CCOCC1)c1cnc(Nc2cc(Cl)ccc2F)cc1C1CC1 [Example 101, 6-(5-Chloro-2-fluoro-phenylamino)-4-cyclopropyl-N-(tetrahydro-pyran-4-ylmethyl)-nicotinamide] | 6.00 to 6.52 | > 50%
O=C(NCC1CCOCC1)c1cnc(Nc2cc(C(F)(F)F)ccc2F)cc1C1CC1 [Example 102, 4-Cyclopropyl-6-(2-fluoro-5-trifluoromethyl-phenylamino)-N-(tetrahydro-pyran-4-ylmethyl)-nicotinamide] | 6.00 to 6.52 | > 50%
O=C(NCC1CCOCC1)c1cnc(Nc2cc(C(F)(F)F)ccc2Cl)cc1C1CC1 [Example 103, 6-(2-Chloro-5-trifluoromethyl-phenylamino)-4-cyclopropyl-N-(tetrahydro-pyran-4-ylmethyl)-nicotinamide] | 6.00 to 6.52 | > 50%
O=C(NCC1CCOCC1)c1cnc(Nc2cc(C(F)(F)F)ccc2Br)cc1C1CC1 [Example 104, 6-(2-Bromo-5-trifluoromethyl-phenylamino)-4-cyclopropyl-N-(tetrahydro-pyran-4-ylmethyl)-nicotinamide] | 6.00 to 6.52 | > 50%
Cc1ccc(Cl)cc1Nc1cc(C2CC2)c(C(=O)NCC2CCOCC2)cn1 [Example 105, 6-(5-Chloro-2-methyl-phenylamino)-4-cyclopropyl-N-(tetrahydro-pyran-4-ylmethyl)-nicotinamide] | 6.00 to 6.52 | > 50%
Cc1cc(C#N)ccc1Nc1cc(C2CC2)c(C(=O)NCC2CCOCC2)cn1 [Example 106, 6-(4-Cyano-2-methyl-phenylamino)-4-cyclopropyl-N-(tetrahydro-pyran-4-ylmethyl)-nicotinamide] | 6.00 to 6.52 | > 50%
